Measured values as given in ChEMBL document CHEMBL4402533 (Eur J Med Chem, 2019).
pIC50: −log10 of the molar value.

What was measured:
Homo sapiens [1] = species on record: Homo sapiens; test: Selectivity ratio of Ki for human carbonic anhydrase 12 to Ki for human carbonic anhydrase 9
Homo sapiens [2] = species on record: Homo sapiens; test: Selectivity ratio of Ki for human carbonic anhydrase 9 to Ki for human carbonic anhydrase 2
Mus musculus = test: Antiinflammatory activity in C57BL/6 mouse assessed as reduction in LPS-induced inflammatory mortality by measuring mouse survival rate at 10 mg/kg, iv preincubated for 15 mins followed by LPS stimulation and measured at 24 hrs interval for 7 days relative to control; type: functional
[3] = Partition coefficient, log P of the compound; type: physicochemical; details: octanol/water
[4] = Chemical stability of the compound in pH 7.4 phosphate buffer assessed as drug decomposition in serum-free medium measured within 30 mins; type: physicochemical
[5] = Critical aggregation concentration of compound by dynamic light scattering; type: physicochemical
[6] = Chemical stability of the compound in presence of 10% FBS or human blood; type: physicochemical
Tyrosinase = biological target: T1, Tyrosinase (Agaricus bisporus, UniProt O42713); test: Inhibition of mushroom tyrosinase preincubated for 10 mins followed by L-DOPA addition and measured for 1 mins by spectrophotometric assay
T1 sequence (O42713 whole entry): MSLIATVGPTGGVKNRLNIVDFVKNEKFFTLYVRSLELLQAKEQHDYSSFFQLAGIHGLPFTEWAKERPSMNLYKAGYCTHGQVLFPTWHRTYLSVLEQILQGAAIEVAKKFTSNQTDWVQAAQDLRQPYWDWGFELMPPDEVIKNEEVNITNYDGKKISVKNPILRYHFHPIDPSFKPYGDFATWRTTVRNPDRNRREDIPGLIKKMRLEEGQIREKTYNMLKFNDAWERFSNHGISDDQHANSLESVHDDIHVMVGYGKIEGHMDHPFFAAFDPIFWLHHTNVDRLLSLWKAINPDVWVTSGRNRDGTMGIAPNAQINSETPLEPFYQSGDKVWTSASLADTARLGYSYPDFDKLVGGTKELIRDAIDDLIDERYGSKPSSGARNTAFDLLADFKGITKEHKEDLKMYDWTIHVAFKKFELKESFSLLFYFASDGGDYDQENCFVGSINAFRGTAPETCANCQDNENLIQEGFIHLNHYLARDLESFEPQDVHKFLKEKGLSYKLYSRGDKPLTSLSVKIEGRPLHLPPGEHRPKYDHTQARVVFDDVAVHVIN

HeLa = test: Antiproliferative activity against human HeLa cells; type: functional, cell-based

## COc1ccc(/C=C/C(=O)/C=C/c2ccc(S(N)(=O)=O)cc2)cc1OC
Homo sapiens [1]
  Ratio Ki: 70
Homo sapiens [2]
  Ratio Ki: 3

## COc1ccc(OC)c(/C=C/C(=O)/C=C/c2ccc(S(N)(=O)=O)cc2)c1
Homo sapiens [1]
  Ratio Ki: 9
Homo sapiens [2]
  Ratio Ki: 9

## O=C(/C=C/c1ccccc1O)/C=C/c1ccccc1Br
Mus musculus
  Activity: 60%

## COc1cc(/C=C/C(=O)CC(=O)/C=C/c2ccc(O)c(OC)c2)ccc1O [CURCUMIN]
[3]
  logP: 2.3 to 2.6
[4]
  Drug degradation: < 90%
[5]
  CAC: 17 µM
[6]
  Stability: < 50%

## O=C1/C(=C/c2ccc(O)cc2)CC/C1=C\c1ccc(O)cc1O
Tyrosinase
  pIC50: 5.76

## COc1ccc(/C=C/C(=O)/C=C/c2ccc(OCCN3CCCCC3)c(OC)c2)cc1OC
HeLa
  pIC50: 6.15
